Positions count from the first letter of the chain named.
Experiments:
Format in all cases: cell-based
GLP-1R = target: T1, GLP-1R (Homo sapiens, UniProt P43220); experiment: cAMP accumulation, wild-type GLP-1R; details: GLP-1R WT, HEK-293T, TR-FRET, mean ± S.E.M.
T1 construct: expressed in transfected cells; host or cells: HEK-293T
Procedure: (§1) HEK-293T cells were maintained at 37°C in 5% CO2 incubator and seeded onto 6-well cell […]
(§2) culture plates before transfection. After overnight culture, the cells were transiently transfected […]
(§3) with various constructs using Lipofectamine 2000 transfection reagent (Invitrogen). After 24 h, […]
(§4) the transfected cells were seeded onto 384-microtiter plates at a density of 3,000 cells per well […]
(§5) in stimulation buffer (HBSS supplemented with 5 mM HEPES, 0.1% (w/v) casein and 0.5 mM […]
(§6) 3-isobutyl-1-methylxanthine). Different concentrations of retatrutide in stimulation buffer were […]
(§7) added, and the stimulation lasted for 40 min. The reaction was stopped by addition of cAMP […]
(§8) detection buffer containing Eu-cAMP tracer and ULight-anti-cAMP. Plates were then incubated for […]
(§9) 60 min at RT. Time-resolved FRET signals were measured at 620 nm and 665 nm, respectively, by […]
(§10) an EnVision multilabel plate reader (PerkinElmer). Data were analyzed in GraphPad PRISM 9.5 […]
and all values were normalized to that of the wild-type (WT). […]
(§11) accumulation was measured in wild-type (WT) and single-point mutated GLP-1R, GIPR or […]
of the WT and dose-response curves were analyzed using a three-parameter logistic equation. […]
curves were analyzed using a three-parameter logistic equation to obtain pEC50 and Emax values. […]
(§12) way ANOVA was used to determine statistical difference. N.D., values that could not be determined due […]

GIPR mutants [1] = target: T2, GIPR mutants (Homo sapiens, UniProt P48546, E354A); experiment: cAMP accumulation, single-point mutated GIPR; details: GIPR E354(6.53b)A; HEK-293T, 40 min, TR-FRET; mean ± S.E.M., n at least 3
T2 construct: expressed in transfected cells; host or cells: HEK-293T
Procedure: as §1, §2, §3, §4, §5, §6, §7, §8, §9, §10
(§13) and all values were normalized to that of the wild-type (WT).
(§14) Supplementary Fig. 5 Effects of receptor mutation on retatrutide-induced cAMP […]
(§15) accumulation. a-c, Signaling profiles of GLP-1R (a), GIPR (b) and GCGR (c) mutants. cAMP […]
as §11
(§16) GCGR expressing HEK-293T cells. cAMP levels were normalized to the maximum response […]
(§17) of the WT and dose-response curves were analyzed using a three-parameter logistic equation.
(§18) Data were generated and graphed as means ± S.E.M. of at least three independent experiments performed in quadruplicate.
(§19) (1 picture or pasted object on this page, not shown here)
(§20) Supplementary Ta b l e S 5 Effects of the ligand-binding pocket residue mutation on retatrutide- […]
(§21) induced cAMP signaling at GLP-1R, GIPR or GCGR. […]
(§22) cAMP levels were normalized to the maximum response of the wild-type (WT) and dose-response […]
(§23) curves were analyzed using a three-parameter logistic equation to obtain pEC50 and Emax values. The […]
(§24) experiments were carried out independently at least three times. Data shown are means ± S.E.M. One- […]
as §12
(§25) to incomplete curve fits. *P< 0.05, **P< 0.01, ***P< 0.001 and ****P<0.0001.

GIPR mutants [2] = target: T3, GIPR mutants (Homo sapiens, UniProt P48546, F127A); experiment: cAMP accumulation, single-point mutated GIPR; details: GIPR F127(1.29b)A; HEK-293T, 40 min, TR-FRET; mean ± S.E.M., n at least 3
T3 construct: expressed in transfected cells; host or cells: HEK-293T
Procedure: as §1, §2, §3, §4, §5, §6, §7, §8, §9, §10, §13, §14, §15, §11, §16, §17, §18, §19, §20, §21, §22, §23, §24, §12, §25

GIPR mutants [3] = target: T4, GIPR mutants (Homo sapiens, UniProt P48546, P195K); experiment: cAMP accumulation, single-point mutated GIPR; details: GIPR P195(2.72b)K, relative to WT; pEC50 and Emax N.D. (incomplete curve fits)
T4 construct: expressed in transfected cells; host or cells: HEK-293T
Procedure: as §1, §2, §3, §4, §5, §6, §7, §8, §9, §10, §13, §14, §15, §11, §16, §17, §18, §19, §20, §21, §22, §23, §24, §12, §25

GIPR mutants [4] = target: T5, GIPR mutants (Homo sapiens, UniProt P48546, R131E); experiment: cAMP accumulation, single-point mutated GIPR; details: GIPR R131(1.33b)E
T5 construct: expressed in transfected cells; host or cells: HEK-293T
T5 sequence (P48546 22-466 R131E): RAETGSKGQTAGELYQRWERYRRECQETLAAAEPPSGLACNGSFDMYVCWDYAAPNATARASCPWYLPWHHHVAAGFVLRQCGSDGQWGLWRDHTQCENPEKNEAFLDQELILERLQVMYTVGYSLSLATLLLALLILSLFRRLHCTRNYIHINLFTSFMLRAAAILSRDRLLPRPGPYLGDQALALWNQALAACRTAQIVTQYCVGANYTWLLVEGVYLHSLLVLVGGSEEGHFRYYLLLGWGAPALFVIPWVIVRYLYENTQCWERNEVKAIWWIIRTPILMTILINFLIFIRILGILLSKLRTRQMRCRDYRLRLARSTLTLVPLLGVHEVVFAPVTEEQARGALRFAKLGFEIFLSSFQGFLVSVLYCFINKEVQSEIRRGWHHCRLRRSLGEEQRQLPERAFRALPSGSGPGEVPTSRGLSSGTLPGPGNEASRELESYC
Procedure: as §1, §2, §3, §4, §5, §6, §7, §8, §9, §10, §13, §14, §15, §11, §16, §17, §18, §19, §20, §21, §22, §23, §24, §12, §25

GIPR mutants [5] = target: T6, GIPR mutants (Homo sapiens, UniProt P48546, R196Y); experiment: cAMP accumulation, single-point mutated GIPR; details: GIPR R196(ECL1)Y
T6 construct: expressed in transfected cells; host or cells: HEK-293T
T6 sequence (P48546 22-466 R196Y): T5 sequence (P48546 22-466 R131E) with E110R, R175Y
Procedure: as §1, §2, §3, §4, §5, §6, §7, §8, §9, §10, §13, §14, §15, §11, §16, §17, §18, §19, §20, §21, §22, §23, §24, §12, §25

GIPR mutants [6] = target: T7, GIPR mutants (Homo sapiens, UniProt P48546, R289A); experiment: cAMP accumulation, single-point mutated GIPR; details: GIPR R289(ECL2)A, HEK-293T, 40 min, TR-FRET, mean ± S.E.M., n at least 3
T7 construct: expressed in transfected cells; host or cells: HEK-293T
Procedure: as §1, §2, §3, §4, §5, §6, §7, §8, §9, §10, §13, §14, §15, §11, §16, §17, §18, §19, §20, §21, §22, §23, §24, §12, §25

GIPR mutants [7] = target: T8, GIPR mutants (Homo sapiens, UniProt P48546, W209A); experiment: cAMP accumulation, single-point mutated GIPR; details: GIPR W209(ECL1)A; HEK-293T, 40 min, TR-FRET; mean ± S.E.M., n at least 3
T8 construct: expressed in transfected cells; host or cells: HEK-293T
Procedure: as §1, §2, §3, §4, §5, §6, §7, §8, §9, §10, §13, §14, §15, §11, §16, §17, §18, §19, §20, §21, §22, §23, §24, §12, §25

GIPR mutants [8] = target: T9, GIPR mutants (Homo sapiens, UniProt P48546, Y36A); experiment: cAMP accumulation, single-point mutated GIPR; details: GIPR Y36(ECD)A; HEK-293T, 40 min, TR-FRET; mean ± S.E.M., n at least 3
T9 construct: expressed in transfected cells; host or cells: HEK-293T
Procedure: as §1, §2, §3, §4, §5, §6, §7, §8, §9, §10, §13, §14, §15, §11, §16, §17, §18, §19, §20, §21, §22, §23, §24, §12, §25

[9] = HEK-293T, 40 min, TR-FRET, mean ± S.E.M., n at least 3

T2 sequence (P48546 22-466 E354A): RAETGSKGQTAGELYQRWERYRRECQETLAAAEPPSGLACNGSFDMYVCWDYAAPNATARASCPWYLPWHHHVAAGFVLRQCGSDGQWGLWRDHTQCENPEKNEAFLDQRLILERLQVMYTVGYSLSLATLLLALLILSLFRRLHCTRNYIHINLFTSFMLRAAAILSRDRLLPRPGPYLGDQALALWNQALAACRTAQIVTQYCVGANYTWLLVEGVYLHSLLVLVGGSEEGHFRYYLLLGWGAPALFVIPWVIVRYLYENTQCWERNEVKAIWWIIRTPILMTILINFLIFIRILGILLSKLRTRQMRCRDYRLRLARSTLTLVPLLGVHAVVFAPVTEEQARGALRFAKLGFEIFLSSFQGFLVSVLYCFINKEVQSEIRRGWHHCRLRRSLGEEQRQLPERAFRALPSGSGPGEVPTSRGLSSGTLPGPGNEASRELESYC
T9 sequence (P48546 22-466 Y36A): as the sequence (P48546 22-466 E354A) above, with Y15A, A333E counted along it
T8 sequence (P48546 22-466 W209A): as the sequence (P48546 22-466 E354A) above, with W188A, A333E counted along it
T1 sequence (P43220 24-463): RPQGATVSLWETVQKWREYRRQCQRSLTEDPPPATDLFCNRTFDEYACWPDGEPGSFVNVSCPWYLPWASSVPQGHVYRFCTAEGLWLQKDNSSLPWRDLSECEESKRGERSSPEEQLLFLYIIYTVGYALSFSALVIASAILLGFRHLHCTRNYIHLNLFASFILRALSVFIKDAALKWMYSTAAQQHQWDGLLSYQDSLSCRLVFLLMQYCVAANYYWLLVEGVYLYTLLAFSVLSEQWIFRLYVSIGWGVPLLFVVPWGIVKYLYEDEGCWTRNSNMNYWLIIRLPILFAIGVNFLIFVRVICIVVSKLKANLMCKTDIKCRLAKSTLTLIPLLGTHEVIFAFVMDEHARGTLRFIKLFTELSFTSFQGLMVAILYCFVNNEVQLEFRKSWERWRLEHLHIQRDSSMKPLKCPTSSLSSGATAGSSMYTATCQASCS
T3 sequence (P48546 22-466 F127A): as the sequence (P48546 22-466 E354A) above, with F106A, A333E counted along it
T7 sequence (P48546 22-466 R289A): as the sequence (P48546 22-466 E354A) above, with R268A, A333E counted along it
T4 sequence (P48546 22-466 P195K): as the sequence (P48546 22-466 E354A) above, with P174K, A333E counted along it

Structure (SMILES): CC[C@H](C)[C@H](NC(=O)[C@H](Cc1ccccc1)NC(=O)[C@H](C)NC(=O)C(C)(C)NC(=O)[C@H](CCC(N)=O)NC(=O)[C@H](C)NC(=O)[C@H](CCCCNC(=O)COCCOCCNC(=O)CC[C@H](NC(=O)CCCCCCCCCCCCCCCCCCC(=O)O)C(=O)O)NC(=O)[C@H](CCCCN)NC(=O)[C@H](CC(=O)O)NC(=O)[C@H](CC(C)C)NC(=O)[C@](C)(CC(C)C)NC(=O)[C@@H](NC(=O)[C@H](CO)NC(=O)[C@H](Cc1ccc(O)cc1)NC(=O)[C@H](CC(=O)O)NC(=O)[C@H](CO)NC(=O)[C@@H](NC(=O)[C@H](Cc1ccccc1)NC(=O)[C@@H](NC(=O)CNC(=O)[C@H](CCC(N)=O)NC(=O)C(C)(C)NC(=O)[C@@H](N)Cc1ccc(O)cc1)[C@@H](C)O)[C@@H](C)O)[C@@H](C)CC)C(=O)N[C@@H](CCC(=O)O)C(=O)N[C@@H](Cc1ccc(O)cc1)C(=O)N[C@@H](CC(C)C)C(=O)N[C@@H](CC(C)C)C(=O)N[C@@H](CCC(=O)O)C(=O)NCC(=O)NCC(=O)N1CCC[C@H]1C(=O)N[C@@H](CO)C(=O)N[C@@H](CO)C(=O)NCC(=O)N[C@@H](C)C(=O)N1CCC[C@H]1C(=O)N1CCC[C@H]1C(=O)N1CCC[C@H]1C(=O)N[C@@H](CO)C(N)=O [retatrutide]
- Emax ± S.E.M. (% WT) (GLP-1R; 40 min, n at least 3): 100.00 ± 2.75 % WT
- EC50 (GLP-1R; 40 min stimulation, at least 3 independent experiments in quadruplicate): 8.91 pM
- EC50 (GIPR mutants [1]): 5.89 pM
- Emax ± S.E.M. (% WT) (GIPR mutants [1]): 99.43 ± 4.28 % WT
- EC50 (GIPR mutants [2]): 4.17 pM
- Emax ± S.E.M. (% WT) (GIPR mutants [2]): 99.67 ± 4.00 % WT
- change of GIPR-mediated cAMP accumulation by mutation (GIPR mutants [3]): markedly decreased
- change of retatrutide potency by mutation (GIPR mutants [4]; relative to WT, modestly): decreased
- Emax ± S.E.M. (% WT) (GIPR mutants [4]; [9]): 98.44 ± 3.88 % WT
- EC50 (GIPR mutants [4]; HEK-293T, 40 min, TR-FRET, mean ± S.E.M., n at least 3, **P < 0.01): 9.33 pM
- decrease of retatrutide potency by mutation (GIPR mutants [5]; relative to WT): 107.7 fold
- Emax ± S.E.M. (% WT) (GIPR mutants [5]; [9]): 92.16 ± 5.36 % WT
- EC50 (GIPR mutants [5]; HEK-293T, 40 min, TR-FRET, mean ± S.E.M., n at least 3, ****P < 0.0001): 245 pM
- Emax ± S.E.M. (% WT) (GIPR mutants [6]): 98.56 ± 4.01 % WT
- EC50 (GIPR mutants [6]; ***P < 0.001): 12.6 pM
- EC50 (GIPR mutants [7]): 2 pM
- Emax ± S.E.M. (% WT) (GIPR mutants [7]): 100.17 ± 3.21 % WT
- EC50 (GIPR mutants [8]): 3.09 pM
- Emax ± S.E.M. (% WT) (GIPR mutants [8]): 99.10 ± 3.86 % WT

Reference: PMC11255275, “Structural insights into the triple agonism at GLP-1R, GIPR and GCGR manifested by retatrutide” (Cell Discovery, 2024)
